Where a name gives a salt, the structure may show the parent alone.
Biological target: BRD4(BD1) (Homo sapiens (Human), UniProt O60885)
Assay: In vitro enzyme inhibition assay (BRD4 AlphaScreen)
Format: binding
Conditions: class symbols A/B/C
Description: His-tagged BRD4 was cloned, expressed and purified to homogeneity. […] BRD4 binding and inhibition was assessed by monitoring the interaction of biotinylated H4-tetraacetyl peptide (AnaSpec, H4K5/8/12/16(Ac), biotin-labeled) with the target using the AlphaScreen technology (Life Technologies). […] After 20 min incubation at room temp, Alpha streptavidin donor beads and Nickel Chelate acceptor beads were added to a final concentration of 5 μg/mL.
The ability of the compounds disclosed herein to inhibit BRD4 activity was quantified and the respective IC50 value was determined.

SMILES | IC50 [nM]
CCS(=O)(=O)c1cccc(-c2cn(C)c(=O)c3cncn23)c1 [Example 133, 5-(3-ethylsulfonylphenyl)-7-methylimidazo[1,5-a]pyrazin-8-one] | > 5000
CCS(=O)(=O)c1cccc(-c2cn(C)c(=O)c3ccncc23)c1 [Example 126, 4-(3-ethylsulfonylphenyl)-2-methyl-2,6-naphthyridin-1-one] | > 5000
COc1cccc(-c2cn(C)c(=O)c3ccccc23)c1 [Example 1, 4-(3-methoxyphenyl)-2-methylisoquinolin-1-one] | 500 to 5000
Cn1cc(-c2cc(N)cc(F)c2)c2ccccc2c1=O [Example 25, 4-(3-amino-5-fluorophenyl)-2-methylisoquinolin-1-one hydrochloride] | 500 to 5000
Cn1cc(-c2cc(N)c(F)cc2F)c2ccccc2c1=O [Example 24, 4-(5-amino-2,4-difluorophenyl)-2-methylisoquinolin-1-one hydrochloride] | 500 to 5000
Cn1cc(-c2ccccc2F)c2ccccc2c1=O [Example 3, 4-(2-fluorophenyl)-2-methylisoquinolin-1-one] | > 5000

Same assay, conditions: in vitro enzyme inhibition assay

SMILES | IC50 [nM]
CCCc1cnc(NS(=O)(=O)CC)nc1-c1ccc(=O)n(C)c1 [Example 357, N-[4-(1-methyl-6-oxopyridin-3-yl)-5-propylpyrimidin-2-yl]ethanesulfonamide] | < 500
[2H]C([2H])([2H])n1cc(-c2cc(S(=O)(=O)CC)ccc2OCC)c(C)cc1=O [Example 456, 5-(2-ethoxy-5-ethylsulfonylphenyl)-1-(^2H3)methyl-4-methylpyridin-2-one] | < 500
Cc1cc(-c2cc(OCc3cccc(C#N)c3)cc(S(C)(=O)=O)c2)cn(C)c1=O [Example 339, 3-[[3-(1,5-dimethyl-6-oxopyridin-3-yl)-5-methylsulfonylphenoxy]methyl]benzonitrile] | < 500
COc1cc(F)c(CS(C)(=O)=O)cc1-c1ccc(=O)n(C)c1 [Example 475, 5-[4-fluoro-2-methoxy-5-(methylsulfonylmethyl)phenyl]-1-methylpyridin-2-one] | 500 to 5000
CCC1CCc2cc(NS(C)(=O)=O)cc(-c3cn(C)c(=O)c4ccccc34)c2O1 (stereo not shown) [Example 490, N-[2-ethyl-8-(2-methyl-1-oxoisoquinolin-4-yl)-3,4-dihydro-2H-chromen-6-yl] methanesulfonamide] | < 500
Cc1cc(=O)n(C)cc1-c1cc(S(C)(=O)=O)ccc1NCC1CC1 [Example 422, 5-[2-(cyclopropylmethylamino)-5-methylsulfonylphenyl]-1,4-dimethylpyridin-2-one] | 500 to 5000
Cn1cc(-c2cc(S(C)(=O)=O)ccc2Oc2ccc(F)cc2F)c2ncncc2c1=O [Example 233, 8-[2-(2,4-difluorophenoxy)-5-methylsulfonylphenyl]-6-methylpyrido[4,3-d]pyrimidin-5-one] | 500 to 5000
CCC#CCOc1ccc(S(=O)(=O)CC)cc1-c1cc(OC)c(=O)n(C)c1 [Example 390, 5-(5-ethylsulfonyl-2-pent-2-ynoxyphenyl)-3-methoxy-1-methylpyridin-2-one] | < 500
CCCCc1cnc(NS(C)(=O)=O)nc1-c1cc(C)c(=O)n(C)c1 [Example 363, N-[5-butyl-4-(1,5-dimethyl-6-oxopyridin-3-yl)pyrimidin-2-yl]methanesulfonamide] | < 500
CCCc1cnc(NS(=O)(=O)CC)nc1-c1cn(C)c(=O)c2ccccc12 [Example 306, N-[4-(2-methyl-1-oxoisoquinolin-4-yl)-5-propylpyrimidin-2-yl] ethanesulfonamide] | < 500
CCS(=O)(=O)c1ccc(NCC2CC2)c(-c2cn(C)c(=O)cc2C)c1 [Example 423, 5-[2-(cyclopropylmethylamino)-5-ethylsulfonylphenyl]-1,4-dimethylpyridin-2-one] | 500 to 5000
Cn1cc(-c2cc(S(C)(=O)=O)ccc2CCC2CC2)c2ccccc2c1=O [Example 319, 4-[2-(2-cyclopropylethyl)-5-methylsulfonylphenyl]-2-methylisoquinolin-1-one] | < 500
Cc1cc(-c2cc(S(C)(=O)=O)ccc2OCCC(F)(F)F)cn(C)c1=O [Example 405, 1,3-dimethyl-5-[5-methylsulfonyl-2-(3,3,3-trifluoropropoxy)phenyl]pyridin-2-one] | < 500
CCCCc1cnc(S(C)(=O)=O)nc1-c1cc(C)c(=O)n(C)c1 [Example 305, 5-(5-butyl-2-methylsulfonylpyrimidin-4-yl)-1,3-dimethylpyridin-2-one] | < 500
Cc1cc(-c2cc(CS(C)(=O)=O)ccc2Oc2ccc(F)cc2F)cn(CCO)c1=O [Example 406, 5-[2-(2,4-difluorophenoxy)-5-(methylsulfonylmethyl)phenyl]-1-(2-hydroxyethyl)-3-methylpyridin-2-one] | < 500
CCS(=O)(=O)c1ccc(OCC2CC2)c(-c2cn(C)c(=O)c3c2CCC3)c1 [Example 505, 4-[2-(cyclopropylmethoxy)-5-ethylsulfonylphenyl]-2-methyl-6,7-dihydro-5H-cyclopenta[c]pyridin-1-one] | < 500
Cn1cc(-c2cc(S(C)(=O)=O)ccc2OCC2CC2)c2ncncc2c1=O [Example 231, 8-[2-(cyclopropylmethoxy)-5-methylsulfonylphenyl]-6-methylpyrido[4,3-d]pyrimidin-5-one] | 500 to 5000
Cc1cc(-c2cc(S(C)(=O)=O)ccc2NC2CCOC2)cn(C)c1=O (stereo not shown) [Example 425, 1,3-dimethyl-5-[5-methylsulfonyl-2-(oxolan-3-ylamino)phenyl]pyridin-2-one] | < 500
COc1ccc(COc2cc(-c3cc(C)c(=O)n(C)c3)cc(S(C)(=O)=O)c2)cc1 [Example 323, 5-[3-[(4-methoxyphenyl)methoxy]-5-methylsulfonylphenyl]-1,3-dimethylpyridin-2-one] | < 500
COCC1COc2c(cc(S(C)(=O)=O)cc2-c2cc(C)c(=O)n(C)c2)O1 (stereo not shown) [Example 502, 5-[2-(methoxymethyl)-7-methylsulfonyl-2,3-dihydro-1,4-benzodioxin-5-yl]-1,3-dimethylpyridin-2-one] | < 500
CCS(=O)(=O)Nc1ccc(Oc2ccc(F)cc2F)c(-c2cc(NC)c(=O)n(C)c2)c1 [Example 410, N-[4-(2,4-difluorophenoxy)-3-[1-methyl-5-(methylamino)-6-oxopyridin-3-yl]phenyl]ethanesulfonamide] | < 500
CC(C)S(=O)(=O)c1ccc(OCC2CC2)c(-c2cn(C)c(=O)c3ccccc23)c1 [Example 364, 4-[2-(cyclopropylmethoxy)-5-propan-2-ylsulfonylphenyl]-2-methylisoquinolin-1-one] | < 500
CCS(=O)(=O)Nc1nc(Oc2ccc(F)cc2F)cc(-c2cc(C)c(=O)n(C)c2)n1 [Example 346, N-[4-(2,4-difluorophenoxy)-6-(1,5-dimethyl-6-oxopyridin-3-yl)pyrimidin-2-yl]ethanesulfonamide] | 500 to 5000
CCS(=O)(=O)Nc1cc(-c2ccc(=O)n(C)c2)c(-c2ccccc2)s1 [Example 424, N-[4-(1-methyl-6-oxopyridin-3-yl)-5-phenylthiophen-2-yl]ethanesulfonamide] | > 5000
CCc1ccccc1-c1sc(NS(=O)(=O)CC)cc1-c1ccc(=O)n(C)c1 [Example 435, N-[5-(2-ethylphenyl)-4-(1-methyl-6-oxopyridin-3-yl)thiophen-2-yl] ethanesulfonamide] | > 5000

— patent US10023592B2, “Bromodomain inhibitors” (Celgene Quanticel Research, Inc., priority 2013, dated 2018)
